The test system of one assay is germline ε promoter. The assay is described as follows: GFP reporter assay of IL-4 induced ε promoter-driven transcription in naive A5T4 cells (phenotype transfer). Type of assay: cell-based. The conditions noted are these: for activity in blocking epsilon promoter transcription (GFP reporter) when presented in the mutant intein context: mutant intein construct; for activity in blocking epsilon promoter transcription (GFP reporter) when presented in the mutant intein context / Mutant Reporter Ratio (± std) / Wild-Type Reporter Ratio (± std): naive A5T4 cells; for Mutant Reporter Ratio (± std): mutant intein construct (non-cyclic, splicing-deficient), IL-4 stimulated, GFP fluorescence; for Wild-Type Reporter Ratio (± std): wild-type intein construct (cyclic peptide), IL-4 30 U/ml, GFP fluorescence BFP−/BFP+, average of 3 values. The text has this: To establish the A5T4 reporter cell line, BJAB cells were infected with a retroviral vector containing an IL-4 responsive 600 bp fragment of the epsilon promoter (Pε) followed by a fusion nucleic acid encoding HBEGF-2a-GFP and a polyadenylation sequence cloned in the reverse orientation into pCGSin (Lorens et al., 2000, Mol. Ther. 1:438-447). Infected cells were induced with IL-4 and single cell sorted by FACS for GFP reporter expression. One of the cell clones identified with the desired profile was designated A5. This cell line was infected with the CtTAIH retroviral vector expressing tTA-VP16 ires hygromycin phosphotranferase gene (Lorens et al., 2000, Virology 272:7) selected with hygromycin and single cell cloned. The clone selected for the screening cell line was characterized for tetracycline regulation and was designated A5T4.
Referring to FIG. 9 or 10, after single cell clones had expanded, cells were replica-plated and grown in the presence or absence of 100 ng/ml Dox for 4 days. Both plates were then stimulated with IL-4 (30 U/ml) and, after 3 more days, both populations were analyzed by FACS to measure GFP fluorescence. FACS data were converted to reporter ratios, which are defined as the ratio of the geometric mean of GFP fluorescence of the +IL-4/+Dox (peptide off) population over the geometric mean of the +IL-4/−Dox (peptide on) population. Cells expressing a cyclic peptide that inhibits germline ε transcription have reporter ratios of >1.1, typically >1.12, >1.13, >1.14 or >1.15.
Phoenix packaging cells were transfected with the retroviral vector illustrated in FIG. 6A encoding a particular cyclic peptide as described in WO 97/27213. Naïve A5T4 cells were infected with the resultant retrovirons and grown for three days. The infected cells (BFP^+) were stimulated with IL-4 (30 U/ml) and, after three days, were assessed by FACS for BFP and GFP fluorescence.
The GFP fluorescence data corresponding to the BFP^−/BFP^+in the presence of IL-4 stimulation were obtained for 34 clones and reporter ratios were calculated therefrom. […] Three others had reporter wt ratios in the range of about 1.12-1.2. The names of the clones, sequences of the regions of the polynucleotides encoding the cyclic peptides SEQ ID NOS:1-23, the sequences of the expressed cyclic peptides SEQ ID NOS:1-23 and their respective reporter ratios are provided in TABLE 1, below (“wild-type” reporter ratios; each reporter ratio is the average of 3 values):
As discussed previously, intein splicing is dependent upon the presence of nucleophilic residues at the splice junctions (underlined in FIG. 6A; see Perler & Adam, 2000, Curr. Opin. Biotechnol. 11:377-383). To confirm that the inhibitory activity of the clones of TABLE 1 was due to the expression of a cyclic peptide, mutants were created that lacked the ability to catalyze the splicing reaction due to the replacement of these three critical underlined nucleophilic residues with alanines. These mutants (illustrated in FIG. 6B) were then used to infect naive A5T4 cells as described above.

For assay [1], the system named is endogenous germline ε promoter. The assay is described as follows: Quantitative real time PCR (Taqman) of endogenous germline ε transcript in A5T4 cells. The assay is classed as cell-based. The conditions noted are these: mutant intein context, +IL-4. The method, then:
The ability of cyclic peptides SEQ ID NOS:1-20 to inhibit transcription of an endogenous germline ε promoter was confirmed using quantitative real time PCR (Taqman®; Applied Biosystems, Foster City, Calif.). Briefly, A5T4 cells were infected with retrovirus capable of expressing the cyclic peptides (prepared as described above). Cells were first sorted for BFP to ensure that they were retrovirally infected. Several different assay conditions were tested: −Dox/-IL-4, −Dox/+IL-4, +Dox/-IL-4, +Dox/+IL-4. All experiments were conducted in triplicate. BFP positive sorted cells were thereafter maintained in Dox (peptide off). To obtain the −Dox condition, cells were washed 2× with media and maintained in Dox-free culture for 72 hours. Cells in +/−Dox were split to 50,000 cells per ml. The following day, IL-4 was added (30 units/ml) and cells were incubated for 3 days before FACS analysis and pelleting for RNA extraction. The primers and probe used were as follows (the probe was labeled at the 5′-end with Fam and at the 3′-end with Tamra):
The probe spans a splice junction and thus will not detect contaminating DNA in the reaction assay. […] The epsilon inhibition ratio R was calculated by dividing the transcript expression values in the presence of Dox and IL-4 (+IL-4/+Dox) by values in the absence of Dox and presence of IL-4(+IL-4/−Dox). […]
(In general: Quantitative PCR measures a nucleic acid by following its amplification.)

“Also recorded” adds a separate entry of the source.

In the case of cyclo(S A R F V), in the assay on germline ε promoter, the “activity in blocking epsilon promoter transcription (GFP reporter) when presented in the mutant intein context” value (shortened to “activity”) is on record as “decrease in activity”, the “Mutant Reporter Ratio (± std)” value stood at 1.43 ± 0.03 and the “Wild-Type Reporter Ratio (± std)” value is given as 1.52 ± 0.04.

cyclo(S D H S Q): in the assay with germline ε promoter, the “activity” value was “inactive”, the “Mutant Reporter Ratio (± std)” value is on record as 1.06 ± 0.06 and the “Wild-Type Reporter Ratio (± std)” value worked out at 1.20 ± 0.04.

For the substance cyclo(S E M F S I Q), in the assay with germline ε promoter, the “activity” value was “inactive”, the “Mutant Reporter Ratio (± std)” value was determined as 1.13 ± 0.03 and the “Wild-Type Reporter Ratio (± std)” value is on record as 1.28 ± 0.03.

Take cyclo(S F G R S): in the assay on germline ε promoter, the “activity” value was “inactive”, the “Mutant Reporter Ratio (± std)” value is listed as 1.08 ± 0.06 and the “Wild-Type Reporter Ratio (± std)” value was found to be 1.20 ± 0.02.

For cyclo(S F V T W), in the assay on germline ε promoter, the “activity” value was “decrease in activity”, the “Mutant Reporter Ratio (± std)” value worked out at 1.25 ± 0.06 and the “Wild-Type Reporter Ratio (± std)” value is recorded as 1.46 ± 0.12.

On to cyclo(S G A D S), for which, in the assay with germline ε promoter, the “activity” value is “inactive”, the “Mutant Reporter Ratio (± std)” value is 1.08 ± 0.05 and the “Wild-Type Reporter Ratio (± std)” value came out at 1.23 ± 0.02.

As to cyclo(S L N R I), in the assay on germline ε promoter, the “activity” value was “remained active”, the “Mutant Reporter Ratio (± std)” value worked out at 1.40 ± 0.08 and the “Wild-Type Reporter Ratio (± std)” value is recorded as 1.45 ± 0.07.

Consider cyclo(S N F T F), for which, in the assay on germline ε promoter, the “activity” value is “inactive; also recorded: did not strongly block”, the “Mutant Reporter Ratio (± std)” value is on record as 1.08 ± 0.05 and the “Wild-Type Reporter Ratio (± std)” value came out at 1.28 ± 0.05. In addition, the “block of endogenous ε-transcription” value in assay [1] is “clearly blocked”.

cyclo(S N I P Q): in the assay with germline ε promoter, the “activity” value is “inactive”, the “Mutant Reporter Ratio (± std)” value is 1.10 ± 0.02 and the “Wild-Type Reporter Ratio (± std)” value came to 1.20 ± 0.01.

Regarding cyclo(S P W K L V G), in the assay with germline ε promoter, the “activity” value is “inactive”, the “Mutant Reporter Ratio (± std)” value was 1.02 ± 0.06 and the “Wild-Type Reporter Ratio (± std)” value was 1.27 ± 0.03.

On to cyclo(S R N W S H), for which, in the assay on germline ε promoter, the “activity” value was “inactive”, the “Mutant Reporter Ratio (± std)” value is reported as 1.06 ± 0.04 and the “Wild-Type Reporter Ratio (± std)” value was found to be 1.18 ± 0.04.

On to cyclo(S R R D R I), for which, in the assay with germline ε promoter, the “activity” value was “inactive”, the “Mutant Reporter Ratio (± std)” value came to 1.08 ± 0.04 and the “Wild-Type Reporter Ratio (± std)” value was 1.31 ± 0.03.

As to cyclo(S R R H C C H), in the assay with germline ε promoter, the “Mutant Reporter Ratio (± std)” value was found to be 1.02 ± 0.03 and the “Wild-Type Reporter Ratio (± std)” value is on record as 1.09 ± 0.03.

As for cyclo(S R V E I), in the assay on germline ε promoter, the “activity” value was “No significant difference; also recorded: inactive”, the “Mutant Reporter Ratio (± std)” value turned out to be 1.06 ± 0.06 and the “Wild-Type Reporter Ratio (± std)” value is listed as 1.53 ± 0.16. Moreover, in the assay on germline ε promoter (net increase of geometric mean GFP fluorescence following IL-4 stimulation, BFP+ vs uninfected population, wild-type intein), the “inhibition of ε-promoter induction” value amounted to 51%.

For the substance cyclo(S S C M R), in the assay on germline ε promoter, the “Mutant Reporter Ratio (± std)” value is given as 1.20 ± 0.12 and the “Wild-Type Reporter Ratio (± std)” value was 1.12 ± 0.03.

Turning to cyclo(S S F T), in the assay with germline ε promoter, the “Mutant Reporter Ratio (± std)” value was found to be 1.05 ± 0.04 and the “Wild-Type Reporter Ratio (± std)” value was 1.10 ± 0.03.

For cyclo(S S L R W), in the assay on germline ε promoter, the “activity” value is reported as “decrease in activity”, the “Mutant Reporter Ratio (± std)” value turned out to be 1.21 ± 0.02 and the “Wild-Type Reporter Ratio (± std)” value is on record as 1.31 ± 0.05.

On to cyclo(S T G P R), for which, in the assay on germline ε promoter, the “activity” value is recorded as “remained active”, the “Mutant Reporter Ratio (± std)” value was 1.18 ± 0.04 and the “Wild-Type Reporter Ratio (± std)” value was determined as 1.19 ± 0.03.

Turning to cyclo(S V I E Q), in the assay with germline ε promoter, the “activity” value is listed as “decrease in activity”, the “Mutant Reporter Ratio (± std)” value is 1.14 ± 0.04 and the “Wild-Type Reporter Ratio (± std)” value came out at 1.22 ± 0.04.

Consider cyclo(S V V T R), for which, in the assay on germline ε promoter, the “activity” value was “remained active”, the “Mutant Reporter Ratio (± std)” value came out at 1.26 ± 0.03 and the “Wild-Type Reporter Ratio (± std)” value was 1.19 ± 0.03.

Take cyclo(S W A Q A): in the assay with germline ε promoter, the “activity” value is “inactive”, the “Mutant Reporter Ratio (± std)” value is listed as 1.10 ± 0.04 and the “Wild-Type Reporter Ratio (± std)” value turned out to be 1.25 ± 0.02.

Regarding cyclo(S Y F T S C W), in the assay on germline ε promoter, the “activity” value is given as “decrease in activity”, the “Mutant Reporter Ratio (± std)” value is reported as 1.27 ± 0.01 and the “Wild-Type Reporter Ratio (± std)” value turned out to be 1.36 ± 0.07.

Consider cyclo(S Y S Q), for which, in the assay with germline ε promoter, the “activity” value was “inactive”, the “Mutant Reporter Ratio (± std)” value came to 1.07 ± 0.01 and the “Wild-Type Reporter Ratio (± std)” value worked out at 1.18 ± 0.01.

Source of the values: US20030166138A1, “Cyclic peptides and analogs useful to treat allergies” (priority 2002, published 2003).
